# Measured values: patent US11873291B2, “Quinoline cGAS antagonist compounds” (ImmuneSensor Therapeutics, Inc., priority 2020, dated 2024)
# Molecular target: T1, recombinant human cGAS (aa147-522) (Homo sapiens, UniProt Q8N884)
# T1 construct: recombinant human cGAS (aa147-522); His6-SUMO (cleaved yes); made in house; host or cells: E. coli BL21/pLys
# Assay: In vitro inhibition assay of cGAS activity (ATP consumption, KinaseGlo Max)
# Format: biochemical
# Conditions: Table 2, read-out: cGAS Inhibition Results IC50
# Procedure, shortened: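 De-tagged recombinant human cGAS (aa147-522, 1.5 μg/mL) was incubated 20 min at 37 °C with herring testis DNA, 6.6 μM ATP and 0.1 mM GTP in Tris pH 7.5/MgCl2 buffer plus serial compound dilutions. Remaining ATP was read by KinaseGlo Max luminescence, and IC50 was fitted from % ATP consumption versus log concentration.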
# T1 sequence (Q8N884 147-522): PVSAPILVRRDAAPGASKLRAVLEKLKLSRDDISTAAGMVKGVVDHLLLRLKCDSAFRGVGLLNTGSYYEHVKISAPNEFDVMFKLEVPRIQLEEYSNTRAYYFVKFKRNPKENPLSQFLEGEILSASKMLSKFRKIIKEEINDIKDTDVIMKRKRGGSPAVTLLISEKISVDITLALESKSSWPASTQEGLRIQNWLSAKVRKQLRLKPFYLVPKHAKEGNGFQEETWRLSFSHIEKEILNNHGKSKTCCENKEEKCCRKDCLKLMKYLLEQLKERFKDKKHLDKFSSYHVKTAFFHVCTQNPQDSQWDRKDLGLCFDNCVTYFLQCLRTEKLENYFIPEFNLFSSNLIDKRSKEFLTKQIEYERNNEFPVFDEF
row,SMILES,IC50 [nM]
1,"O=[PH](O)OC1CCCN(c2cc(-n3ccnc3)c3ccc(Cl)c(Cl)c3n2)C1 (centres unmarked) [I-111, 1-(7,8-dichloro-4-(1H-imidazol-1-yl)quinolin-2-yl)piperidin-3-yl hydrogen phosphonate]",< 2000
2,O=C(O)C1CC(O)CN(c2cc(-n3ccnc3)c3ccc(Cl)cc3n2)C1 (centres unmarked) [I-135],> 30000
3,Clc1cc(N2CCNCC2)c2ccc(Cl)c(Cl)c2n1 [I-312],> 30000
4,Fc1ccc2c(-n3ccnc3)ccnc2c1 [I-416],> 30000
5,CC(C)(C)OC(=O)NC[C@@H]1CCCN1c1cc(-n2ccnc2)c2ccc(Cl)c(Cl)c2n1 [I-152],2000 to 30000
6,O=C(O)[C@@H]1C[C@H](O)CN1c1cc(-c2cn[nH]c2)c2ccc(Cl)c(Cl)c2n1 [I-431],< 2000
7,O=S(=O)(O)CCCNc1cc(-n2ccnc2)c2ccc(Cl)c(Cl)c2n1 [I-160],< 2000
8,CN(CCC(=O)NCC(N)=O)c1cc(-c2cn[nH]c2)c2ccc(Cl)c(Cl)c2n1 [I-195],< 2000
9,"NS(=O)(=O)N1CCOC(CNc2cc(-n3ccnc3)c3ccc(Cl)c(Cl)c3n2)C1 (centres unmarked) [I-219, 2-(((7,8-dichloro-4-(1H-imidazol-1-yl)quinolin-2-yl)amino)methyl)morpholine-4-sulfonamide]",< 2000
10,"OB(O)C1CCCN(c2cc(-n3ccnc3)c3ccc(Cl)c(Cl)c3n2)C1 (centres unmarked) [I-120, (1-(7,8-Dichloro-4-(1H-imidazol-1-yl)quinolin-2-yl)piperidin-3-yl)boronic acid]",< 2000
11,CC(C)[C@H](NC(=O)C[C@@H]1CCCN1c1cc(-n2ccnc2)c2ccc(Cl)c(Cl)c2n1)C(=O)O [I-338],< 2000
12,"Clc1ccc2c(-n3ccnc3)cc(N3CCNCC3)nc2c1 [I-76, 7-chloro-4-(1H-imidazol-1-yl)-2-(piperazin-1-yl)quinoline]",2000 to 30000
13,CN(CCS(N)(=O)=O)c1ccc2ccc(Cl)c(Cl)c2n1 [I-161],> 30000
14,"O=S(=O)(O)CC(Cc1ccccc1)Nc1cc(-n2ccnc2)c2ccc(Cl)c(Cl)c2n1 (centres unmarked) [I-162, 2-((7,8-dichloro-4-(1H-imidazol-1-yl)quinolin-2-yl)amino)-3-phenylpropane-1-sulfonic acid]",> 30000
15,COC(CN(C)c1cc(-n2ccnc2)c2ccc(Cl)c(Cl)c2n1)OC [I-364],2000 to 30000
16,C[C@H](CC(=O)O)Nc1cc(-n2ccnc2)c2ccc(Cl)c(Cl)c2n1 [I-185],2000 to 30000
17,O=C(O)[C@@H]1CCCN(c2cc(-n3ccnc3)c3ccc(Cl)cc3n2)C1 [I-357],2000 to 30000
18,"COc1c(Br)ccc2c(-n3ccnc3)cc(-c3ccccc3)nc12 [I-54, 7-bromo-4-(1H-imidazol-1-yl)-8-methoxy-2-phenylquinoline]",2000 to 30000
19,O=C(O)c1cc(OCCO)cc(-c2cc(-n3ccnc3)c3ccc(Cl)cc3n2)c1 [I-29],< 2000
20,Clc1ccc2c(-n3ccnc3)cc(OCCCN3CCOCC3)nc2c1 [I-284],> 30000
21,Clc1ccc2c(-n3ccnc3)cc(OCCN3CCOCC3)nc2c1 [I-279],> 30000
22,Clc1ccc2c(-n3cncc3C3CC3)cc(-c3ccccc3)nc2c1 [I-65],> 30000
23,Brc1ccc2c(-n3ccnc3)cc(-c3cccnc3)nc2c1 [I-384],2000 to 30000
24,NS(=O)(=O)CCNc1cc(-c2cn[nH]c2)c2cc(Cl)cc(Cl)c2n1 [I-264],< 2000
25,Brc1ccc2c(-n3ccnc3)cc(-c3ccncc3)nc2c1 [I-383],> 30000

row,SMILES,IC50 [nM]
1,Brc1ccc2c(-n3cccn3)ccnc2c1 [I-414],> 30000
2,"O=P(O)(O)CCCNc1cc(-c2cn[nH]c2)c2ccc(Cl)c(Cl)c2n1 [I-397, (3-((7,8-dichloro-4-(1H-pyrazol-4-yl)quinolin-2-yl)amino)propyl)phosphonic acid]",< 2000
3,CN(CCC(=O)N1CCCC(O)C1)c1cc(-c2cn[nH]c2)c2ccc(Cl)c(Cl)c2n1 (centres unmarked) [I-198],< 2000
4,O=C(O)CNC(=O)C[C@@H]1CCCN1c1cc(-c2cn[nH]c2)c2ccc(Cl)c(Cl)c2n1 [I-326],< 2000
5,NS(=O)(=O)CCNc1cc(Cl)c2ccc(Cl)c(Cl)c2n1 [I-295],> 30000
6,O=C(O)CNC(=O)[C@@H]1CN(c2cc(-c3cn[nH]c3)c3ccc(Cl)c(Cl)c3n2)CCO1 [I-341],< 2000
7,O=C(O)[C@@H]1CN(c2cc(-c3cn[nH]c3)c3ccc(Cl)c(Cl)c3n2)CCO1 [I-327],< 2000
8,CCOC(=O)c1ccccc1-c1cc(-n2ccnc2)c2ccc(Cl)cc2n1 [I-12],> 30000
9,"O=C(CO)Nc1cc(C(=O)O)cc(-c2cc(-n3ccnc3)c3ccc(Cl)cc3n2)c1 [I-23, 3-(7-chloro-4-(1H-imidazol-1-yl)quinolin-2-yl)-5-(2-hydroxyacetamido)benzoic acid]",< 2000
10,CN(C)C(=O)CCN(C)c1cc(-c2cn[nH]c2)c2ccc(Cl)c(Cl)c2n1 [I-197],< 2000
11,"Clc1cccc2c(-n3ccnc3)ccnc12 [I-408, 8-chloro-4-(1H-imidazol-1-yl)quinoline]",> 30000
12,"CN(CCNS(=O)(=O)C1CC1)c1cc(-n2ccnc2)c2ccc(Cl)cc2n1 [I-226, N-(2-((7-chloro-4-(1H-imidazol-1-yl)quinolin-2-yl)(methyl)amino)ethyl)cyclopropanesulfonamide]",2000 to 30000
13,O=C(O)c1cc(-c2cc(-n3ccnc3)c3ccc(Cl)cc3n2)ccc1OC(F)(F)F [I-18],2000 to 30000
14,O=C(O)[C@H]1CN(c2cc(-c3cn[nH]c3)c3ccc(Cl)c(Cl)c3n2)CCO1 [I-328],< 2000
15,OCCC1CCCN(c2cc(-c3cn[nH]c3)c3ccc(Cl)c(Cl)c3n2)C1 (centres unmarked) [I-375],2000 to 30000
16,"O=C(O)[C@H](CO)Nc1cc(-n2ccnc2)c2ccc(Cl)c(Cl)c2n1 [I-168, (7,8-Dichloro-4-(1H-imidazol-1-yl)quinolin-2-yl)serine]",< 2000
17,CNS(=O)(=O)CCNc1cc(-n2ccnc2)c2ccc(Cl)c(Cl)c2n1 [I-201],< 2000
18,Clc1ccc2c(-n3ccnc3)cc(N3CCCCC3)nc2c1Cl [I-121],2000 to 30000
19,O=C(O)[C@@H]1CCCN1C(=O)C[C@@H]1CCCN1c1cc(-c2cn[nH]c2)c2ccc(Cl)c(Cl)c2n1 [I-325],< 2000
20,"CS(=O)(=O)N1CCN(c2cc(-n3ccnc3)c3ccc(Cl)cc3n2)CC1 [I-78, 7-chloro-4-(1H-imidazol-1-yl)-2-(4-(methylsulfonyl)piperazin-1-yl) quinoline]",> 30000
21,"Brc1ccc2c(-n3ccnc3)cc(-c3cccs3)nc2c1 [I-380, 7-bromo-4-(1H-imidazol-1-yl)-2-(thiophen-2-yl)quinoline]",2000 to 30000
22,COC(=O)CCS(=O)(=O)NC[C@@H]1CCCN1c1cc(-n2ccnc2)c2ccc(Cl)c(Cl)c2n1 [I-390],2000 to 30000
23,O=C(O)CN(Cc1ccncc1)c1cc(-n2ccnc2)c2ccc(Cl)c(Cl)c2n1 [I-176],2000 to 30000
24,C[C@@]1(CO)CCCN1c1cc(-n2ccnc2)c2ccc(Cl)c(Cl)c2n1 [I-143],< 2000

# Same assay, conditions: Table 3, read-out: cGAS Inhibition Results IC50
row,SMILES,IC50 [nM]
1,"O=P(O)(O)CCOC[C@@H]1CCCN1c1cc(-n2ccnc2)c2ccc(Cl)c(Cl)c2n1 [I-763, (S)-(2-((1-(7,8-dichloro-4-(1H-imidazol-1-yl)quinolin-2-yl)pyrrolidin-2-yl)methoxy)ethyl)phosphonic acid]",< 2000
2,"COC(=O)C[C@@H]1CCCN1c1cc(-n2ccnc2)c2ccc(Cl)c(Cl)c2c1 [I-572, methyl (S)-2-(1-(7,8-dichloro-4-(1H-imidazol-1-yl)naphthalen-2-yl)pyrrolidin-2-yl)acetate]",< 2000
3,COC(=O)CO[C@@H]1CCN(c2cc(-n3ccnc3)c3ccc(Cl)c(Cl)c3n2)C1 [I-768],2000 to 30000
4,"CC(C)N(CCCOc1ccc(Cl)cc1C(=O)O)c1cc(-n2ccnc2)c2ccc(Cl)c(Cl)c2n1 [I-848, 5-chloro-2-(3-((7,8-dichloro-4-(1H-imidazol-1-yl)quinolin-2-yl)(isopropyl)amino)propoxy) benzoic acid]",2000 to 30000
5,CC1(C)CCN(c2cc(-n3ccnc3)c3ccc(Cl)c(Cl)c3n2)C1C(=O)O (centres unmarked) [I-483],2000 to 30000
6,O=C(C[C@@H]1CCCN1c1cc(-n2ccnc2)c2ccc(Cl)c(Cl)c2n1)NCCC(O)(C(F)(F)F)C(F)(F)F [I-543],2000 to 30000
7,COC(=O)[C@@H]1[C@@H](OCCC(=O)O)CCN1c1cc(-n2ccnc2)c2ccc(Cl)c(Cl)c2n1 [I-870],2000 to 30000
8,CN(CCNS(=O)(=O)CCC(=O)O)c1cc(-n2ccnc2)c2ccc(Cl)c(Cl)c2n1 [I-617],< 2000
9,COC(=O)C1CCCN(C(=O)C[C@@H]2CCCN2c2cc(-n3ccnc3)c3ccc(Cl)c(Cl)c3n2)C1 (some centres unmarked) [I-535],2000 to 30000
10,CO[C@@H]1CCN(c2cc(-n3ccnc3)c3ccc(Cl)c(Cl)c3n2)[C@@H]1C(=O)O [I-559],< 2000
11,COC(=O)c1cccc(S(=O)(=O)NCCN(C)c2cc(-n3ccnc3)c3ccc(Cl)c(Cl)c3n2)c1 [I-609],> 30000
12,O=C1NC(=O)[C@H](CS(=O)(=O)NC[C@@H]2CCCN2c2cc(-n3ccnc3)c3ccc(Cl)c(Cl)c3n2)N1 [I-637],< 2000
13,"O=C(O)CCOC[C@@H]1CCCN1c1cc(N2CC[C@@H](O)C2)c2ccc(Cl)c(Cl)c2n1 [I-821, 3-(((S)-1-(7,8-dichloro-4-((R)-3-hydroxypyrrolidin-1-yl)quinolin-2-yl)pyrrolidin-2-yl)methoxy)propanoic acid]",> 30000
14,CN(CCC(=O)O)C(=O)CCN(C)c1cc(-n2ccnc2)c2ccc(Cl)c(Cl)c2n1 [I-564],< 2000
15,CN(CCS(=O)(=O)NCC(=O)O)c1cc(-n2ccnc2)c2ccc(Cl)c(Cl)c2n1 [I-633],< 2000
16,COC(=O)[C@@H]1C[C@H](C(F)(F)F)CN1c1cc(-n2ccnc2)c2ccc(Cl)c(Cl)c2n1 [I-462],2000 to 30000
17,O=C(O)CCOCC(COCCC(=O)O)Nc1cc(-n2ccnc2)c2ccc(Cl)c(Cl)c2n1 [I-874],< 2000
18,N#C[C@@H]1CCCN1c1cc(-n2ccnc2)c2ccc(Cl)c(Cl)c2n1 [I-495],< 2000
19,O=C(O)CCO[C@H]1CCN(c2cc(-n3ccnc3)c3ccc(Cl)c(Cl)c3n2)C1 [I-771],2000 to 30000
